In ChEMBL document CHEMBL3045406, “Enantioselective Relieving Activity of α-Methylbenzylphenylureas toward Bensulfuron-methyl Injury to Rice (Oryza sativa)” (Biosci Biotechnol Biochem, 1999):

Tests used:
Oryza sativa [1] = assay: Relieving activity against bensulfuron-methyl induced injury to Oryza sativa (rice) assessed as growth rate at 1 uM (Rbv = 46 to 53%); assay type: functional
Oryza sativa [2] = assay: Effect on Oryza sativa (rice) assessed as growth rate at 1 uM relative to control; assay type: organism-based; settings: in vivo
Oryza sativa [3] = assay: Effect on Oryza sativa (rice) assessed as growth rate at 0.1 uM relative to control; assay type: organism-based; settings: in vivo
Oryza sativa [4] = assay: Safener indices, ratio of compound effect of Oryza sativa (rice) growth rate to relieving activity against bensulfuron-methyl induced injury to Oryza sativa growth rate at 0.1 uM
Oryza sativa [5] = assay: Safener indices, ratio of compound effect of Oryza sativa (rice) growth rate to relieving activity against bensulfuron-methyl induced injury to Oryza sativa growth rate at 1 uM
Oryza sativa [6] = assay: Relieving activity against bensulfuron-methyl induced injury to Oryza sativa (rice) assessed as growth rate at 10 uM (Rbv = 46 to 53%); assay type: functional
Oryza sativa [7] = assay: Safener indices, ratio of compound effect of Oryza sativa (rice) growth rate to relieving activity against bensulfuron-methyl induced injury to Oryza sativa growth rate at 10 uM
Oryza sativa [8] = assay: Relieving activity against bensulfuron-methyl induced injury to Oryza sativa (rice) assessed as growth rate at 0.1 uM (Rbv = 46 to 53%); assay type: functional
Oryza sativa [9] = assay: Effect on Oryza sativa (rice) assessed as growth rate at 10 uM relative to control; assay type: organism-based; settings: in vivo
[10] = Hydrophobicity, log K of the compound; assay type: physicochemical; settings: octanol/water

Question: With `C[C@H](NC(=O)Nc1ccccc1)c1ccccc1` as the compound, how does the Activity (Oryza sativa [1]) read?
Answer: 80%

Question: And the Activity (Oryza sativa [2])?
Answer: 98%

Question: And the Activity (Oryza sativa [3])?
Answer: 101%

Question: What about the Ratio (Oryza sativa [4]) of the same compound?
Answer: 30

Question: And the Ratio (Oryza sativa [5])?
Answer: 58

Question: And the Activity (Oryza sativa [6])?
Answer: 80%

Question: And the Ratio (Oryza sativa [7])?
Answer: 63

Question: And the Activity (Oryza sativa [8])?
Answer: 67%

Question: What about the Activity (Oryza sativa [9]) of the same compound?
Answer: 90%

Question: And the “log K” value [10]?
Answer: 0.28

Question: Which results are given for `C[C@@H](NC(=O)Nc1ccccc1)c1ccccc1`?
Answer: Activity (Oryza sativa [1]): 69%; Activity (Oryza sativa [2]): 98%; Activity (Oryza sativa [3]): 101%; Ratio (Oryza sativa [4]): 7; Ratio (Oryza sativa [5]): 36; Activity (Oryza sativa [6]): 77%; Ratio (Oryza sativa [7]): 60; Activity (Oryza sativa [8]): 56%; Activity (Oryza sativa [9]): 79%; log K [10]: 0.28

Question: For `Cc1ccccc1NC(=O)N[C@H](C)c1ccccc1`, which Activity (Oryza sativa [1]) is on record?
Answer: 55%

Question: And the Activity (Oryza sativa [2])?
Answer: 100%

Question: And the Activity (Oryza sativa [3])?
Answer: 100%

Question: What about the Ratio (Oryza sativa [4]) of the same compound?
Answer: 6

Question: What about the Ratio (Oryza sativa [5]) of the same compound?
Answer: 12

Question: What about the Activity (Oryza sativa [6]) of the same compound?
Answer: 71%

Question: And the Ratio (Oryza sativa [7])?
Answer: 42

Question: What about the Activity (Oryza sativa [8]) of the same compound?
Answer: 52%

Question: What about the Activity (Oryza sativa [9]) of the same compound?
Answer: 99%

Question: And the “log K” value [10]?
Answer: 0.337

Question: Which Activity (Oryza sativa [1]) does the source give for `Cc1ccc(NC(=O)NC(C)(C)c2ccccc2)cc1` [DAIMURON] here?
Answer: 88%

Question: And the Activity (Oryza sativa [2])?
Answer: 89%

Question: What about the Activity (Oryza sativa [3]) of the same compound?
Answer: 99%

Question: What about the Ratio (Oryza sativa [4]) of the same compound?
Answer: 47

Question: And the Ratio (Oryza sativa [5])?
Answer: 78

Question: And the Activity (Oryza sativa [6])?
Answer: 79%

Question: And the Ratio (Oryza sativa [7])?
Answer: 66

Question: What about the Activity (Oryza sativa [8]) of the same compound?
Answer: 74%

Question: What about the Activity (Oryza sativa [9]) of the same compound?
Answer: 77%

Question: And the “log K” value [10]?
Answer: 0.487
